Measurements reported in patent publication US8299285B2, “Compounds for imaging and therapy” (Isis Innovation Limited, priority 2005, dated 2012).
“And” between values parts separate entries of the source, which are not always exact repeats. Equal values may be shown once. Read-outs that look alike come from different tables or passages of the source.

Assays:
Type in all cases: physicochemical
[1] = UV/Vis absorption of Zn[BTSCs]; conditions: for UV/Vis Absorption λmax(2): second UV/vis absorption; for UV/Vis Absorption λmax(3): third UV/vis absorption
Protocol: (§1) UV/Vis and fluorescence spectra were measured with a Perkin Elmer Lamda 19 spectrometer and a Hitachi F-4500 fluorescence spectrophotometer respectively.
The co-ordination of BTSCs to zinc produces an extended delocalised system. Zn[ATSM] was the first of these complexes observed to be fluorescent (Emission: λmax=557 nm) and with UV/Vis absorptions at 308 and 429 nm, in line with the predictions of DFT calculations. A third absorption predicted by DFT at below 300 nm was not observed due to limitations of the spectrometer.
(§2) The following table gives the position of λmax for the fluorescence emission spectra and the second and third UV/vis Absorptions for a range of Zn[BTSCs]

[2] = Fluorescence emission spectra of zinc bis(thiosemicarbazone) complexes (Zn[BTSCs]); conditions: for Fluorescence Emission λmax(2): peak (2), associated with the BTSC backbone; for fluorescence peak associated with the phenyl ring: FIG. 2; for Fluorescence Emission λmax(1): peak (1), associated with the phenyl component
Protocol: as §1
In addition to the fluorescence band around 550 nm the Zn[ATS(R)/P-carb] complexes show a second band with at λma 340 nm. This may be associated with the fluorescence of the terminal benzoic acid group.
Fluorescence emission of Zn[ATS(R)/P-Cart] for excitation with DMSO at 300 nm.
To further investigate the effect of addition of a phenyl group onto zinc [BTSC], complexes differing only by the presence of a phenyl group were compared; see FIG. 2.
The Zn[GT(Et)] peak at 335 nm, is a Raman scattering peak. The Zn[PGTS(Et)] peak at 342 nm and the Zn[GTS(Ph)] peak at 397 nm are due to fluorescence associated with the phenyl ring. These peaks are readily differentiated; true fluorescence emission peaks (λmax,) remain static over a range of excitation wavelengths whereas Raman peaks (λmax) vary, as described by Wayne, R. P., in Principles and Applications of Photochemistry, 1986.
as §2
Fluorescence peak (1) between 340 and 400 nm, associated with the phenyl component and a second, fluorescence peak (2), present in all complexes between 530 and 570 nm, associated with the BTSC backbone. The intensity of fluorescence peak (1) was always less than that of fluorescence peak (2). Fluorescence peak (2) for the all the phenyl complexes appear at longer wavelengths as these have longer delocalised π systems than their alkyl substituted counterparts.

[3] = Fluorescence spectroscopy of complexes 1-13; conditions: for fluorescence emission λmax /nm / Relative intensity / Relative intensity (values in parentheses): excited at 475 nm; for fluorescence emission λmax /nm / Relative intensity: 0.01 mmol solutions in DMSO; for Relative intensity / Relative intensity (values in parentheses): relative to complex 3; for fluorescence strength: 0.01 mmol concentrations in DMSO; for Relative intensity (values in parentheses): 0.1 mmol solutions; for increase in fluorescence intensity relative to Zn[ATSM] and Zn[ATSM/A]: fluorescence emission
Protocol: as §1
(§3) The optical properties of a range of mono- and binuclear complexes derived from Zn[ATSM/A] (see the table below) were measured by electronic absorption (UV/vis) and fluorescence spectroscopy.
Fluorescence spectroscopy: the fluorescence of complexes 1-13 was measured at 0.1, 0.01 and 0.001 mmol concentrations by exciting at a range of wavelengths from 300 nm to 500 n. At 0.1 mmol and 0.01 mmol concentrations all of the complexes show emissions between 534 nm and 604 nm. […] Values of λmax and the intensity of the fluorescence emission relative to that of complex 3 when excited at 475 nm for complexes 1-13 are give in the following table.
All values relate to 0.01 mmol solutions in DMSO. (a) The values in parentheses refer to 0.1 mmol solutions.

[4] = UV/vis spectroscopy of complexes 1-13; conditions: for λmax (nm), (higher wavelength absorption peak, lowest energy transition) / λmax (nm): DMSO, 0.001 mmol concentration; for ε (mol^-1 dm^3 cm^-1): molar absorption coefficient of the higher wavelength absorption peak, Beer-Lambert law
Protocol: as §1, §3
UV/vis spectroscopy: electronic absorption spectra were recorded in DMSO at 0.1, 0.01 and 0.001 mmol concentrations. Values of λmax were obtained from spectra of solutions at 0.001 mmol concentration, as this is sufficiently dilute to enable intermolecular interactions to be neglected.

[5] = Fluorescence of Zn[ATS(Me)/A-T-Amino-BTAP] and its precursors; conditions: 475 nm, DMSO, 0.01 mM
Protocol: as §1
The fluorescence emission spectrum of Zn[ATS(Me)/A-T-Amino-BTAP] can be examined as two regions 400-500 nm, predominantly benzothiazole fluorescence and 490-790 nm, predominantly the zinc (BTSC) fluorescence.
FIGS. 3 and 4 show the fluorescence emission spectra (a) for Amino-BTAP, 4-Aldehydrophenylimino-BTAP and Zn[ATS(Me)/A-T-Amino-BTAP], (375 nm, D MSO, 0.01 mM); and (b) for Zn[ATS(Me)/A-T-Amino-BTAP], Zn[ATS(Me)/A] and Zn[ATS(Me)/A-T], (475 nm. DMSO, 0.01 mM).

[6] = octanol/water partition coefficient (log P)
Excerpt: Modification of the substituents present on the bis(thiosemicarbazone) ligand can be used to control, for example, the lipophilicity of the ligand and resulting complex. For example, lipophilicity can be increased with increasing alkyl substitution of the conjugated ligand backbone, particularly in the groups R2, R2′, L1, L1′, R1 and R1′.

[7] = Cyclic voltammetry in DMF with a glassy carbon electrode; conditions: vs SCE
Excerpt: Under the same conditions the hypoxia selective radiopharmaceutical [Cu(ATSM)] undergoes a reversible reduction at E1/2=−0.59 V.

[8] = wavelengths greater than 300 nm

Molecule | fluorescence emission λmax /nm [3] [nm] | Relative intensity [3] | λmax (nm), (higher wavelength absorption peak, lowest energy transition) [4] [nm] | λmax (nm) [4, 8] [nm] | ε (mol^-1 dm^3 cm^-1) [4] [mol^-1 dm^3 cm^-1] | further results
CNC([S-])=NN=CC=NN=C([S-])NC.[Zn+2] [Zn[GTS(Me)]] | – | – | – | – | – | UV/Vis Absorption λmax(2) [1]: 334 nm; UV/Vis Absorption λmax(3) [1]: 446 nm; Fluorescence Emission λmax(2) [2]: 550 nm
CNC1=NN=C(C)C(C)=NN=C(N/N=C(\C)C(C)=O)[S][Zn][S]1 [Complex 8, Zn[ATSM/A-butane-2,3-dione]] | 561 | 0.33 | 455 | 323 | 35594 | –
C1=[N+]2N=C(Nc3ccccc3)[S][Zn-2]23[S]C(Nc2ccccc2)=N[N+]3=C1 [Zn[GTS(Ph)]] | – | – | – | – | – | UV/Vis Absorption λmax(2) [1]: 342 nm; UV/Vis Absorption λmax(3) [1]: 469 nm; fluorescence peak associated with the phenyl ring [2]: 397 nm; Fluorescence Emission λmax(1) [2]: 340 nm; Fluorescence Emission λmax(2) [2]: 575 nm
CNC1=NN=C(C)C(C)=NN=C(N/N=C/c2c(O)ccc3ccccc23)[S][Zn][S]1 [Complex 6, Zn[ATSM/A-2-hydroxynaphthaldehyde]] | 558 | 2.61 | 460 | 334 | 62183 | λmax (nm) [4]: 379 nm
CNC1=NN=C(C)C(C)=NN=C(NN)[S][Zn][S]1 [Complex 2, Zn[ATSM/A]] | 548 | 0.10 | 429 | 315 | 29690 | fluorescence strength [3]: comparatively weak fluorescence; Relative intensity (values in parentheses) [3]: 0.32; fluorescence intensity in the zinc complex region, versus Zn[ATS(Me)/A-T-Amino-BTAP] [5]: approximately tenfold lower; rank of fluorescence emission curve intensity, FIG. 4 (b) [5]: second highest intensity
CNC1=NN=C(C)C(C)=NN=C(N/N=C/C(=O)c2ccccc2)[S][Zn][S]1 [Complex 9, Zn[ATSM/A-phenylglyoxal]] | 605 | 0.19 | 474 | 341 | 46157 | –
CC1=[N+]2N=C(N)[S][Cu-2]23[S]C(N)=N[N+]3=C1 (stereo not drawn) [Cu[PTS]] | – | – | – | – | – | log P ([6]; P is the octanol/water partition coefficient): 0.76
CCNC1=N[N+]2=CC(c3ccccc3)=[N+]3N=C(NCC)[S][Zn-2]23[S]1 (stereo not drawn) [Zn PGTS(Et), Zn [PGTS(Et)]] | – | – | – | – | – | UV/Vis Absorption λmax(2) [1]: 331 nm; UV/Vis Absorption λmax(3) [1]: 466 nm; fluorescence peak associated with the phenyl ring [2]: 342 nm; Fluorescence Emission λmax(1) [2]: 391 nm; Fluorescence Emission λmax(2) [2]: 567 nm
CN=C([S-])N/N=C(C)/C(C)=N/NC([S-])=NC.[Cu+2] [[Cu(ATSM)], Cu[ATSM], reference compound] | – | – | – | – | – | E1/2 of reduction (Cu(II) to Cu(I)) [7]: −0.59 V
Zn[ATSM] [Complex 1, reference compound] | 534 | 0.09 | 429 | 308 | 29444 | fluorescence strength [3]: comparatively weak fluorescence; Relative intensity (values in parentheses) [3]: 0.35; UV/Vis absorptions [1]: 308 nm and 429 nm; Emission λmax [2]: 557 nm
CCNC1=N[N+]2=CC=[N+]3N=C(NCC)[S][Zn-2]23[S]1 [Zn[GTS(Et)]] | – | – | – | – | – | UV/Vis Absorption λmax(2) [1]: 323 nm; UV/Vis Absorption λmax(3) [1]: 445 nm; Fluorescence Emission λmax(2) [2]: 550 nm
CC(C=NNC(=S)N(C)C)=NNC(=S)N(C)C.[Cu] [Cu[PTSM2]] | – | – | – | – | – | log P [6]: 3.18
CNC1=NN=C(C)C(C)=NN=C(N/N=C/c2ccc(C=O)cc2)[S][Zn][S]1 [Complex 10, Zn[ATSM/A-terephthalaldehyde]] | 584 | 0.23 | 468 | – | 49912 | fluorescence intensity in the zinc complex region, versus Zn[ATS(Me)/A-T-Amino-BTAP] [5]: approximately tenfold lower; rank of fluorescence emission curve intensity, FIG. 4 (b) [5]: lowest intensity; λmax (nm) [4]: 364 nm
CNC1=NN=C(C)C(C)=NN=C(N/N=C/c2ccccc2O)[S][Zn][S]1 [Complex 5, Zn[ATSM/A-salicylaldehyde]] | 548 | 0.95 | 455 | 346 | 51172 | –
CNC1=NN=C(C)C(C)=NN=C(N/N=C/C=N/NC2=NN=C(C)C(C)=NN=C(NC)[S][Zn][S]2)[S][Zn][S]1 [Complex 11, Zn2[ATSM/A-glyoxal-ATSM/A]] | 558 | 2.46 | 489 | 330 | 126450 | increase in fluorescence intensity relative to Zn[ATSM] and Zn[ATSM/A] [3]: almost thirty-fold increase
CNC1=NN=C(C)C(C)=NN=C(N/N=C/c2ccco2)[S][Zn][S]1 [Complex 4, Zn[ATSM/A-2-furaldehyde]] | 551 | 1.05 | 455 | 340 | 36939 | –
CNC1=NN=C(C)C(C)=NN=C(N/N=C/c2ccccc2)[S][Zn][S]1 [Complex 3, Zn[ATSM/A-benzaldehyde]] | 553 | 1.00 | 451 | 333 | 40016 | –
CNC1=NN=C(C)C(C)=NN=C(N/N=C/c2cccc(/C=N/NC3=NN=C(C)C(C)=NN=C(NC)[S][Zn][S]3)c2)[S][Zn][S]1 [Complex 13, Zn2[ATSM/A-isopthalaldehyde-ZnATSM/A]] | 567 | 2.65 | 457 | 339 | 79475 | increase in fluorescence intensity relative to Zn[ATSM] and Zn[ATSM/A] [3]: almost thirty-fold increase
CCCN(CCC)c1ccc(/C=N/NC2=NN=C(C)C(C)=NN=C(NC)[S][Zn][S]2)cc1 [Complex 7, Zn[ATSM/A-4-(di-n-propylamino)benzaldehyde]] | 578 | 2.85 | 465 | 321 | 75127 | λmax (nm) [4]: 370 nm
